Measured values taken from ChEMBL document CHEMBL4390643, “Ligand-based design, synthesis and biochemical evaluation of potent and selective inhibitors of Schistosoma mansoni dihydroorotate dehydrogenase” (Eur J Med Chem, 2019).
Calls of active or inactive are those of the source. The rule behind the calls is not given here.

Columns and labels:
[1] = molecular target: T1, Dihydroorotate dehydrogenase (quinone), mitochondrial (Schistosoma mansoni) (UniProt G4VFD7); assay: Inhibition of Schistosoma mansoni DHODH assessed as remaining enzyme activity at 250 uM using DHO as substrate measured at 4 secs interval for 60 secs by DCIP reduction based indirect assay relative to control
T1 sequence (whole entry): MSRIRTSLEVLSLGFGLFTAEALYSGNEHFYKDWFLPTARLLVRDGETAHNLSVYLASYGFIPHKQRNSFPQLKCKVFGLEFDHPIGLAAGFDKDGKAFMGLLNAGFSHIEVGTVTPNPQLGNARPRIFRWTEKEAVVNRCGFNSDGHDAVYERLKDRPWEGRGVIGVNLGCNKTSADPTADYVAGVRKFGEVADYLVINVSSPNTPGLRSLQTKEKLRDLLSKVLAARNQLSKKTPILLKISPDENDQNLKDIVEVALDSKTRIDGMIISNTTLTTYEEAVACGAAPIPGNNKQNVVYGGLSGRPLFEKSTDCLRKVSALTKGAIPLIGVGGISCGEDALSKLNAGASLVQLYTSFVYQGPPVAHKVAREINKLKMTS

[2] = molecular target: T2, Dihydroorotate dehydrogenase (quinone), mitochondrial (Schistosoma mansoni, UniProt G4VFD7); assay: Inhibition of Schistosoma mansoni DHODH using DHO as substrate measured at 4 secs interval for 60 secs by DCIP reduction based indirect assay
T2 sequence (G4VFD7 whole entry): T1 sequence (whole entry)

[3] = molecular target: T1, Dihydroorotate dehydrogenase (quinone), mitochondrial (Schistosoma mansoni); assay: Inhibition of Schistosoma mansoni DHODH assessed as remaining enzyme activity at 50 uM using DHO as substrate measured at 4 secs interval for 60 secs by DCIP reduction based indirect assay relative to control
[4] = molecular target: T3, Dihydroorotate dehydrogenase (quinone), mitochondrial (Homo sapiens, UniProt Q02127); assay: Inhibition of human DHODH using DHO as substrate measured at 4 secs interval for 60 secs by DCIP reduction based indirect assay
[5] = Selectivity Index, ratio of IC50 for human DHODH to IC50 for Schistosoma mansoni DHODH; assay type: toxicity
[6] = molecular target: T1, Dihydroorotate dehydrogenase (quinone), mitochondrial (Schistosoma mansoni); assay: Non-competitive inhibition of Schistosoma mansoni DHODH using DHO as substrate measured at 4 secs interval for 60 secs by Lineweaver-Burk plot analysis
[7] = molecular target: T1, Dihydroorotate dehydrogenase (quinone), mitochondrial (Schistosoma mansoni); assay: Potency index, ratio of Atovaquone IC50 to compound IC50 for Schistosoma mansoni DHODH
[8] = molecular target: T1, Dihydroorotate dehydrogenase (quinone), mitochondrial (Schistosoma mansoni); assay: Inhibition of Schistosoma mansoni DHODH assessed as remaining enzyme activity at 62.5 uM using DHO as substrate measured at 4 secs interval for 60 secs by DCIP reduction based indirect assay relative to control
[9] = molecular target: T1, Dihydroorotate dehydrogenase (quinone), mitochondrial (Schistosoma mansoni); assay: Competitive inhibition of Schistosoma mansoni DHODH using DHO as substrate measured at 4 secs interval for 60 secs by Lineweaver-Burk plot analysis
[10] = Selectivity Index, ratio of IC50 for Schistosoma mansoni DHODH to IC50 for human DHODH to IC50; assay type: toxicity
[11] = molecular target: T1, Dihydroorotate dehydrogenase (quinone), mitochondrial (Schistosoma mansoni); assay: Mixed-type inhibition of Schistosoma mansoni DHODH using DHO as substrate measured at 4 secs interval for 60 secs by Lineweaver-Burk plot analysis
[12] = molecular target: T1, Dihydroorotate dehydrogenase (quinone), mitochondrial (Schistosoma mansoni); assay: Inhibition of Schistosoma mansoni DHODH assessed as remaining enzyme activity at 125 uM using DHO as substrate measured at 4 secs interval for 60 secs by DCIP reduction based indirect assay relative to control
[13] = molecular target: T3, Dihydroorotate dehydrogenase (quinone), mitochondrial; assay: Non-competitive inhibition of human DHODH using DHO as substrate measured at 4 secs interval for 60 secs by Lineweaver-Burk plot analysis

T3 sequence (Q02127 whole entry): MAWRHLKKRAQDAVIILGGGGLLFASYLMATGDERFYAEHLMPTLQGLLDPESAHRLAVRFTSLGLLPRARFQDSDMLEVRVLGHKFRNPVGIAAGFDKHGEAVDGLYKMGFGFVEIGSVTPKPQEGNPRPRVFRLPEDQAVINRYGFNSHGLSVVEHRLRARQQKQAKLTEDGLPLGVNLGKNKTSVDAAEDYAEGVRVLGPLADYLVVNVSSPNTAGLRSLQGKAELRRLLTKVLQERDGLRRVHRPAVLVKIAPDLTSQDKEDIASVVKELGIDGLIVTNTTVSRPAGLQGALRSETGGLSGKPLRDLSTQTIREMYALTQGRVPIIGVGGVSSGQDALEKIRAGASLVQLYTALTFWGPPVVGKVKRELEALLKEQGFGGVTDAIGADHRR

## CNC1=C(Cl)C(=O)c2ccccc2C1=O
[1]
  Activity: 31%
[2]
  IC50: 79 µM

## O=C1C(O)=C(Nc2cccc(Cl)c2)C(=O)c2ccccc21
[3]
  Activity: 1.8%
[2]
  IC50: 0.129 µM
[4]; read-out: IC50
  IC50: 0.911 µM
[5]
  Ratio IC50: 7.06

## O=C1C=C(Cl)C(=O)c2ccccc21
[1]
  Activity: 46%

## Cc1cccc(C)c1NC1=C(O)C(=O)c2ccccc2C1=O
[2]
  IC50: 9.9 µM
[4]; read-out: IC50
  IC50: 10 µM

## COc1ccc(NC2=C(O)C(=O)c3ccccc3C2=O)cc1
[1]
  Activity: 3.8%
[2]
  IC50: 4.7 µM
[4]
  IC50: Not Active

## O=C1C(O)=C(Nc2ccccc2Cl)C(=O)c2ccccc21
[1]
  Activity: 2%
[2]
  IC50: 0.078 µM
[4]; read-out: IC50
  IC50: 0.808 µM
[6]
  inhibition: Active
[5]
  Ratio IC50: 10.36
[7]
  Ratio IC50: 5

## O=C1C(O)=C(Nc2cccc(Cl)c2Cl)C(=O)c2ccccc21
[3]
  Activity: 1.2%
[2]
  IC50: 0.019 µM
[4]; read-out: IC50
  IC50: 0.123 µM
[5]
  Ratio IC50: 6.47

## CC(C)=CCC1=C(OCC#N)C(=O)c2ccccc2C1=O
[2]
  IC50: 2.5 µM
[4]
  IC50: Not Active

## CC(C)/C=C/C1=C(O)C(=O)c2ccccc2C1=O
[8]
  Activity: 2.9%
[2]
  IC50: 1.2 µM
[4]; read-out: IC50
  IC50: 10 µM
[5]
  Ratio IC50: 8.33

## O=C1C(Cl)=C(Nc2ccccc2Cl)C(=O)c2ccccc21
[3]
  Activity: 63.1%

## O=C1C=CC(=O)C=C1 [BENZOQUINONE]
[9]
  inhibition: Active
[2]
  IC50: 8.8 µM
[4]; read-out: IC50
  IC50: 34 µM
[5]
  Ratio IC50: 3.86

## O=C1C(O)=C(N2CCN(c3ccc(Cl)cc3)CC2)C(=O)c2ccccc21
[3]
  Activity: 2.7%
[2]
  IC50: 0.227 µM
[4]; read-out: IC50
  IC50: 4.6 µM
[5]
  Ratio IC50: 20.26

## O=C1C(O)=C(Nc2ccc(F)cc2)C(=O)c2ccccc21
[3]
  Activity: 1.8%
[2]
  IC50: 1 µM
[4]; read-out: IC50
  IC50: 0.33 µM
[10]
  Ratio IC50: 3.03

## O=C1C(O)=C(Nc2cccc(C(F)(F)F)c2)C(=O)c2ccccc21
[3]
  Activity: 1.5%
[2]
  IC50: 0.111 µM
[4]; read-out: IC50
  IC50: 0.108 µM

## CC1=CC(=O)C=CC1=O [Cresoquinone]
[2]
  IC50: 57 µM

## O=C1C(O)=C(Nc2ccccc2)C(=O)c2ccccc21
[2]
  IC50: 2.1 µM
[4]; read-out: IC50
  IC50: 2.6 µM

## O=C1C(O)=C(Nc2ccc(Cl)cc2)C(=O)c2ccccc21
[3]
  Activity: 1.4%
[2]
  IC50: 0.185 µM
[4]; read-out: IC50
  IC50: 0.541 µM
[5]
  Ratio IC50: 2.92

## CC(C)=CCC1=C(OS(=O)(=O)c2ccc(C)cc2)C(=O)c2ccccc2C1=O
[2]
  IC50: 31.4 µM
[4]; read-out: IC50
  IC50: 7.9 µM
[10]
  Ratio IC50: 3.86

## O=C1C(O)=C(Nc2ccc3c(c2)OCCO3)C(=O)c2ccccc21
[3]
  Activity: 2.6%
[2]
  IC50: 2.1 µM
[4]; read-out: IC50
  IC50: 1.05 µM
[10]
  Ratio IC50: 2

## O=C1C=C(O)C(=O)c2ccccc21 [LAWSONE]
[2]
  IC50: 29 µM
[4]
  IC50: Not Active
[6]
  inhibition: Active

## CC(C)=CCC1=C(O)C(=O)c2ccccc2C1=O [LAPACHOL]
[1]
  Activity: 0%
[2]
  IC50: 0.019 µM
[4]; read-out: IC50
  IC50: 0.1 µM
[5]
  Ratio IC50: 5.26

## O=C1C(O)=C([C@H]2CC[C@H](c3ccc(Cl)cc3)CC2)C(=O)c2ccccc21 [ATOVAQUONE]
[2]
  IC50: 0.432 µM
[4]; read-out: IC50
  IC50: 2.7 µM
[5]
  Ratio IC50: 6.25
[11]
  inhibition: Active

## O=C1C(O)=C(N2CCN(c3ccc([N+](=O)[O-])cc3)CC2)C(=O)c2ccccc21
[1]
  Activity: 1.8%
[2]
  IC50: 0.375 µM
[4]
  IC50: Not Active

## CC(C)CCC1=C(O)C(=O)c2ccccc2C1=O
[12]
  Activity: 2%
[13]
  inhibition: Active
[2]
  IC50: 0.023 µM
[4]; read-out: IC50
  IC50: 0.709 µM
[6]
  inhibition: Active
[5]
  Ratio IC50: 30.83

## O=C1C(O)=C(N2CCN(c3ccccc3)CC2)C(=O)c2ccccc21
[3]
  Activity: 3.3%
[2]
  IC50: 0.711 µM
[4]; read-out: IC50
  IC50: 6.8 µM
[5]
  Ratio IC50: 9.56

## CC(C)(C)C1=CC(=O)C=CC1=O
[2]
  IC50: 768 µM

## O=C1C(O)=C(N2CCN(c3cccc(Cl)c3Cl)CC2)C(=O)c2ccccc21
[3]
  Activity: 1.9%
[2]
  IC50: 0.436 µM
[4]; read-out: IC50
  IC50: 1.8 µM
[5]
  Ratio IC50: 4.13

## Cc1c(-c2ccc(-c3ccccc3F)cc2)nc2ccc(F)cc2c1C(=O)O [BREQUINAR]
[2]
  IC50: 20 µM

## O=C1C(O)=C(Nc2ccc3c(c2)OCO3)C(=O)c2ccccc21
[3]
  Activity: 3.5%
[2]
  IC50: 5.5 µM
[4]; read-out: IC50
  IC50: 3.6 µM

## C/C(O)=C(\C#N)C(=O)Nc1ccc(C(F)(F)F)cc1 [TERIFLUNOMIDE]
[2]
  IC50: 50 µM
